In patent US4028351A, “Method for the preparation of derivatives of spiro (4,5)-decane and derivatives thus obtained” (Buskine S.A., priority 1971, dated 1977):

Assays:
[1] = test system: kaolin induced oedema; experiment: Kaolin induced oedema (rat), anti-inflammatory activity; type: in vivo, Wistar rat
From the text: b) the data of anti-inflammatory activity are expressed as the volume
variation of the kaolin induced oedema in the Wistar rat;

[2] = test system: Acetylcholine broncho-spasm; experiment: Broncho-spasm antagonist activity (Konzett and Roessler technique), acetylcholine; type: in vivo, guinea pigs; conditions: Cavia porcellus, iv, guinea pig, i.v., read-out: Broncho-spasm 50% approx. inhibiting dose, Acetylcholine
Description: (§1) c) the experiments on the antagonist activity against the bronochospasm
(§2) were carried out on guinea pigs, according to the technique taught by
(§3) Konzett and Roessler (Arch. Exper. Pathol. Pharm., 71, (1940), 195).

[3] = test system: Histamine broncho-spasm; experiment: Broncho-spasm antagonist activity (Konzett and Roessler technique), histamine; type: in vivo, guinea pigs; conditions: Cavia porcellus, iv, guinea pig, i.v., read-out: Broncho-spasm 50% approx. inhibiting dose, Histamine
Description: as §1, §2, §3

[4] = test system: Serotonine broncho-spasm; experiment: Broncho-spasm antagonist activity (Konzett and Roessler technique), serotonine; type: in vivo, guinea pigs; conditions: Cavia porcellus, iv, guinea pig, i.v., read-out: Broncho-spasm 50% approx. inhibiting dose, Serotonine
Description: as §1, §2, §3

[5] = LD50 (rat) i.p.; conditions: in vivo, ip
[6] = Heated plate test (mouse), analgesic activity; type: in vivo
From the text: a) the data of analgesic activity are expressed as the variation % of the
stimulation threshold in the mouse;

[7] = total dose 310 mg/kg per os (48 hours)
[8] = total dose 440 mg/kg per os (48 hours)

With `O=C1NCC2(CCN(CCc3ccc4c(c3)OCO4)CC2)O1` the “Kaolin induced oedema, volume variation %” value [1, 7] was 39.5%, the ED50 [2] was over 2.5 mg/kg and the ED50 [3] was 0.2 mg/kg. The ED50 [4] was over 2.5 mg/kg, the LD50 [5] was 235 mg/kg and the “Heated plate test, % increase of threshold value” (“Heated plate test, % increase” below) ([6]; 40 mg/kg i.p.) was 80%.
For `O=C1NCC2(CCN(CCc3ccc(F)cc3)CC2)O1`, the “Kaolin induced oedema, volume variation %” value ([1]; total dose 70 mg/kg per os (48 hours)) was 19.4%, the ED50 [2] was 2 mg/kg and the ED50 [3] was 0.2 mg/kg. For the same compound, the ED50 [4] was 0.5 mg/kg, the LD50 [5] was 282 mg/kg and the “Heated plate test, % increase” value ([6]; 10 mg/kg i.p.) was 41.7%.
For `O=C1NCC2(CCN(CCOc3ccccc3)CC2)O1`, the “Kaolin induced oedema, volume variation %” value [1, 8] was 26.3%, the ED50 [2] was over 0.5 mg/kg and the ED50 [3] was over 0.5 mg/kg. The ED50 [4] was over 0.5 mg/kg, the LD50 [5] was 344 mg/kg and the “Heated plate test, % increase” value ([6]; 100 mg/kg i.p.) was 49%.
In the case of `O=C1NCC2(CCN(C(c3ccccc3)c3ccccc3)CC2)O1`, the “Kaolin induced oedema, volume variation %” value [1, 8] is reported as 4.6%, the ED50 [2] is reported as over 0.5 mg/kg and the ED50 [3] is reported as over 0.5 mg/kg. For the same compound, the ED50 [4] was over 0.5 mg/kg, the LD50 [5] was 346 mg/kg and the “Heated plate test, % increase” value ([6]; 100 mg/kg i.p.) was 119%.
In the case of `O=C1NCC2(CCN(CCc3cccc(C(F)(F)F)c3)CC2)O1`, the “Kaolin induced oedema, volume variation %” value [1, 7] is reported as 10%, the ED50 [2] is reported as over 0.5 mg/kg and the ED50 [3] is reported as 0.5 mg/kg. The ED50 [4] was over 0.5 mg/kg, the LD50 [5] was 344 mg/kg and the “Heated plate test, % increase” value ([6]; 50 mg/kg i.p.) was 45.6%.
With `O=C1NCC2(CCN(Cc3ccccc3)CC2)O1` the “Kaolin induced oedema, volume variation %” value ([1]; total dose 340 mg/kg per os (48 hours)) was 9.4%, the ED50 [2] was over 0.5 mg/kg and the ED50 [3] was over 0.5 mg/kg. For the same compound, the ED50 [4] was over 0.5 mg/kg, the LD50 [5] was 319 mg/kg and the “Heated plate test, % increase” value ([6]; 100 mg/kg i.p.) was 93%.
For `O=C1NCC2(CCN(CCc3ccccc3)CC2)O1`, the “Kaolin induced oedema, volume variation %” value ([1]; total dose 190 mg/kg per os (48 hours)) was 16.1%, the ED50 [2] was 2 mg/kg and the ED50 [3] was 0.5 mg/kg. The ED50 [4] was 0.2 mg/kg, the LD50 [5] was 230 mg/kg and the “Heated plate test, % increase” value ([6]; 25 mg/kg i.p.) was 63.4%.
